Results from PMC7522982, “PKIS deep dive yields a chemical starting point for dark kinases and a cell active BRSK2 inhibitor” (Scientific Reports, 2020).
Values joined by “and” are separate entries in the source; they are usually repeats but may differ in a detail not shown here. Equal entries are not always repeated. Where two headings read alike, the source gives them in different places.

Tests used:
[1] = target: T1, NLuc-BRSK2 in HEK293 cells (Homo sapiens, UniProt Q8IWQ3); assay: BRSK2 NanoBRET cellular target engagement assay; assay type: cell-based; conditions: HEK293 cells transiently expressing NLuc-BRSK2, Tracer K5 1 μM, N = 3
T1 construct: host or cells: HEK293
T1 sequence (Q8IWQ3 1-736): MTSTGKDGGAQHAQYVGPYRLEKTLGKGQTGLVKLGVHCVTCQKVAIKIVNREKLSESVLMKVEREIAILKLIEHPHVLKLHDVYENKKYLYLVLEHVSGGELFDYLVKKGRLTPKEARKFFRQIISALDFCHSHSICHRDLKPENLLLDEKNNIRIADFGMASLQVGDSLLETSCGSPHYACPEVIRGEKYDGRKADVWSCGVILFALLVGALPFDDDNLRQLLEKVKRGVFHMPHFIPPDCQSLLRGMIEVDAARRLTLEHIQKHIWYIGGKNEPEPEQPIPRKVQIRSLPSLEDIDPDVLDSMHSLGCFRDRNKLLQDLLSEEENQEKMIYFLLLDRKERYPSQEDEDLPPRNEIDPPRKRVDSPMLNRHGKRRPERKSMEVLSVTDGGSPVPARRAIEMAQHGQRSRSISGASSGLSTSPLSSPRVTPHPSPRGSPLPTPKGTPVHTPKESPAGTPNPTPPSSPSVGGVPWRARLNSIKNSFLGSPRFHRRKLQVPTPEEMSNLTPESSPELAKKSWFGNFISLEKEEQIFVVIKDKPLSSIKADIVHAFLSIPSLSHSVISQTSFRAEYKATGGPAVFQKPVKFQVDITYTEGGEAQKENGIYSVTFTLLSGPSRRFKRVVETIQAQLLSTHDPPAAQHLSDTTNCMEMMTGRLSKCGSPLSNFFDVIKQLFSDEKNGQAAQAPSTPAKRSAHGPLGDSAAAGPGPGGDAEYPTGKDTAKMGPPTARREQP
Description: Our interest in illuminating BRSK2 biology motivated further investigation of the cellular target engagement of BRSK2 by GW296115 using our NanoBRET assay. BRSK2 kinase was fused to 19-kDa luciferase (NLuc) at its N-terminus (NLuc–BRSK2) which was transiently expressed in HEK293 cells, and then incubated with a cell-permeable fluorescent energy transfer probe (tracer)[23].
NanoBRET assays were executed as described previously. Constructs for BRSK2 NanoBRET measurements were provided in kind by Promega. The N-terminal Nanoluciferase (NL)/BRSK2 fusion (NL-BRSK2) was encoded in pFN32K expression vector, including flexible Gly-Ser-Ser-Gly linkers between NL and BRSK2 (Promega). For cellular BRSK2 NanoBRET target engagement experiments, a 10 μg/mL solution of DNA in Opti-MEM without serum (Gibco) was prepared with 9 μg/mL of Carrier DNA (Promega) and 1 μg/mL of NL-BRSK2 to achieve a total volume of 1.05 mL. To this solution was then added 31.5 μL of FuGENE HD (Promega) to form a lipid:DNA complex, mixed by inversion 8 times, and incubated at room temperature for 20 min. The resulting transfection complex (1.082 mL) was next gently mixed with HEK293 cells (21 mL) suspended at a density of 2 × 10^5 cells/mL in DMEM containing 10% FBS.
After 24 h, media was removed via aspiration and 85 μL of room temperature Opti-MEM without phenol red (Gibco) was added to each well. […] Next, 5 μL (20 × working stock of NanoBRET Tracer K5 [20 μM] in Tracer Dilution Buffer (Promega N291B)) was added to each well with the exception of the “no tracer” control wells. Test compounds were prepared as concentrated stock solutions in 100% DMSO (Sigma) at a concentration of 10 mM. […] A volume of 10 μL of tenfold test compound stock solutions (final assay concentration of […]) was added to each well. For “no compound” and “no tracer” control wells, 10 μL of Opti-MEM plus DMSO (9 μL Opti-MEM plus 1 μL DMSO) was added to each well to achieve a final concentration of 1% DMSO.
After 2 h, plates were returned to room temperature over the course of 15 min. […] Next, 50 μL of the 3 × substrate/extracellular NL inhibitor stock was added to each well.
Test compounds were evaluated at 8 concentrations in competition with NanoBRET Tracer K5 in HEK293 cells transiently expressing the NL-BRSK2 fusion protein. Raw milliBRET (mBRET) values were obtained by dividing the acceptor emission values (600 nm) by the donor emission values (450 nm), and then multiplying by 1000. Averaged control values were used to represent complete inhibition (no tracer control: transfected cells in Opti-MEM + DMSO; tracer control: transfected cells in Opti-MEM + DMSO + Tracer K5 only), and were plotted alongside the raw mBRET values. The data with n = 3 biological replicates was first normalized and then fit using Sigmoidal, 4PL binding curve in Prism Software (version 8, GraphPad, La Jolla, CA, USA).

BRSK2 = target: T2, BRSK2 (Homo sapiens, UniProt Q8IWQ3); parameters: purchased Eurofins; conditions: 0.5 μM; cited from earlier work
T2 sequence (Q8IWQ3 1-736): T1 sequence (Q8IWQ3 1-736)

[2] = read-out: BRSK2 NanoBRET data IC50

Row | Structure (SMILES) | IC50 [1, 2] [nM] | also measured
1 | O=C1NC(=O)c2c1c1c3ccccc3[nH]c1c1[nH]c3ccccc3c21 [Arcyriaflavin A] | 7680 ± 3500 | –
2 | O=C1NC(=O)C(c2c[nH]c3ccccc23)=C1c1c[nH]c2ccccc12 [Bisindolylmaleimide IV, bisindolylmaleimide IV] | – | biochemical inhibition of BRSK2 (BRSK2): weak biochemical inhibition
3 | O=C1NC(=O)c2c1c1c3ccccc3[nH]c1c1[nH]c3cc(Br)ccc3c21 [CDK4 inhibitor] | 1330 ± 230 | –
4 | Cn1c2ccccc2c2c3c(c4c5ccccc5n(CCC#N)c4c21)CNC3=O [Gö 6976] | 914 ± 640 | –
5 | COC(=O)C1(O)CC2OC1(C)n1c3ccccc3c3c4c(c5c6ccccc6n2c5c31)C(=O)NC4 (stereo not shown) [K-252a] | – | IC50 ([1]; BRSK2 NanoBRET data IC50 (nM)): 20.2 nM and < 100 nM
6 | O=C1NCc2c1c1c3ccccc3[nH]c1c1[nH]c3ccccc3c21 [K-252c] | – | IC50 ([1]; BRSK2 NanoBRET data IC50 (nM)): 308 ± 250 nM
7 | O=C1NC(=O)c2c1c1c3ccccc3n3c1c1c2c2ccccc2n1C1CCC3O1 [SB 218078] | 883 ± 200 | –
